# Measurements: patent US20220132849A1, “USE OF SPIROPIDION” (SYNGENTA CROP PROTECTION AG, priority 2019, published 2022)
# Tests used:
# selected pests = assay: Soil drench on vegetable plants, overall comparison over crops and pests; type: in vivo; conditions: soil treatment at the same dose rate (10 mg ai/plant); range of vegetable crops and pests
# Method: (§1) To the soil at the base of vegetable plants naturally infested with a population of a selected pest (refer Table 2) was applied by drench 30 to 100 mL per plant of an active ingredient (ai) solution at a dose rate of 10 mg ai/plant, wherein the solutions consisted of spiropidion or spirotetramat as active ingredient. Soil application was made 3 to 7 days after transplant in a nursery tray. Spiropidion was applied as a dilution of an SC300 formulation in water. Spirotetramat was applied as a dilution of an SC240 formulation in water. Mortality rates were recorded as a percentage against an untreated check plant and were evaluated at between 5 and 40 days after soil application.
# [1] = Uptake from soil into tomato plants after drench, LC/MS of roots, stem and leaves; set-up: species or system Solanum lycopersicum Ailsa Craig; conditions: in vivo
# Method: In a greenhouse at 20° C., tomato plants (Solanum lycopersicum Ailsa Craig at BBCH 12 growth stage) grown in 50% Jip 3 and 50% peat in 5″ pots were drenched (in five replicates) with 50 mL of a 100 ppm aqueous active ingredient solution (5 mg of active ingredient per plant) prepared from dilution of (i) a spiropidion SC300 formulation (SC=suspension concentrate), and (ii) commercially-available spirotetramat as a SC240 formulation. At four intervals post-treatment (1, 7, 14 and 21 days), tomato plants subjected to treatments (i) and (ii) were sectioned into roots, stem and separate leaf segments, washed and extracted with the quantification by liquid chromatography/mass spectrometry (LC/MS) of amounts (μg) of spiropidion and its dione (cide), and spirotetramat and its dione (cide).
# Thrips sp. = assay: Soil drench on naturally infested vegetable plants, mortality; type: in vivo; conditions: soil drench 10 mg ai/plant, 5 to 40 days after application
# Method: as §1
# Tetranychus urticae = assay: as above; type: in vivo; conditions: soil drench 10 mg ai/plant, 5 to 40 days after application
# Method: as §1
# Bemisia tabaci = assay: as above; type: in vivo; conditions: soil drench 10 mg ai/plant, 5 to 40 days after application
# Method: as §1
# Aphis gossypii = assay: as above; type: in vivo; conditions: soil drench 10 mg ai/plant, 5 to 40 days after application
# Method: as §1
# [2] = test system: coffee leaf miner (Perileucoptera coffeella); assay: Soil drench on naturally infested coffee plants, mortality; type: in vivo; conditions: 30 to 95 days after application, against untreated check plant
# Method: To the soil surface at the base of separate coffee plants naturally infested with a population of coffee leaf miner (Perileucoptera coffeella) was applied as a drench 50 to 100 mL of an active ingredient (ai) solution at a dose rate of 390 mg ai/plant, wherein the active ingredient was spiropidion, or thiamethoxam as a commercial standard. Spiropidion was applied as a dilution of an SC300 formulation in water. Thiamethoxam was applied as a dilution of a WG25 formulation in water. Mortality rates were recorded as a pest control percentage against an untreated check plant and were evaluated at between 30 and 95 days after soil application of the respective active ingredients.
smiles,measurement,setting,value
CCOC(=O)OC1=C(c2c(C)cc(Cl)cc2C)C(=O)N(C)C12CCN(OC)CC2 [spiropidion],mortality rates compared to spirotetramat,selected pests,consistently higher
same,rate of uptake from the soil compared to spirotetramat,[1],much greater rate of uptake from the soil
CCOC(=O)OC1=C(c2cc(C)ccc2C)C(=O)N[C@]12CC[C@@H](OC)CC2 [spirotetramat],% Mortality rate against untreated plant,"Thrips sp.; Test no. 9, Cucumber",90%
same,% Mortality rate against untreated plant,"Thrips sp.; Test no. 11, Melon",70%
same,% Mortality rate against untreated plant,"Thrips sp.; Test no. 12, Melon",90%
same,% Mortality rate against untreated plant,"Thrips sp.; Test no. 13, Melon",64%
same,% Mortality rate against untreated plant,"Thrips sp.; Test no. 22, Hot pepper",46%
same,% Mortality rate against untreated plant,"Thrips sp.; Test no. 23, Sweet pepper",53%
same,% Mortality rate against untreated plant,"Tetranychus urticae; Test no. 1, Eggplant",62%
same,% Mortality rate against untreated plant,"Tetranychus urticae; Test no. 2, Eggplant",85%
same,% Mortality rate against untreated plant,"Tetranychus urticae; Test no. 21, Hot pepper",45%
same,% Mortality rate against untreated plant,"Bemisia tabaci; Test no. 3, Eggplant",68%
same,% Mortality rate against untreated plant,"Bemisia tabaci; Test no. 4, Eggplant",93%
same,% Mortality rate against untreated plant,"Bemisia tabaci; Test no. 5, Eggplant",76%
same,% Mortality rate against untreated plant,"Bemisia tabaci; Test no. 6, Eggplant",91%
same,% Mortality rate against untreated plant,"Bemisia tabaci; Test no. 7, Eggplant",96%
same,% Mortality rate against untreated plant,"Bemisia tabaci; Test no. 14, Melon",64%
same,% Mortality rate against untreated plant,"Bemisia tabaci; Test no. 16, Squash",83%
same,% Mortality rate against untreated plant,"Bemisia tabaci; Test no. 17, Squash",42%
same,% Mortality rate against untreated plant,"Bemisia tabaci; Test no. 20, Tomato",84%
same,% Mortality rate against untreated plant,"Aphis gossypii; Test no. 8, Eggplant",71%
same,% Mortality rate against untreated plant,"Aphis gossypii; Test no. 10, Cucumber",87%
same,% Mortality rate against untreated plant,"Aphis gossypii; Test no. 15, Melon",63%
same,% Mortality rate against untreated plant,"Aphis gossypii; Test no. 18, Squash",93%
same,% Mortality rate against untreated plant,"Aphis gossypii; Test no. 19, Squash",84%
CN1COCN(Cc2cnc(Cl)s2)/C1=N\[N+](=O)[O-] [thiamethoxam],% Mortality rate,"[2]; Test no. 1, soil drench 390 mg ai/plant",39%
same,% Mortality rate,"[2]; Test no. 2, soil drench 390 mg ai/plant",68%
same,% Mortality rate,"[2]; Test no. 3, soil drench 390 mg ai/plant",81%
same,% Mortality rate,"[2]; Test no. 4, soil drench 390 mg ai/plant",73%
same,% Mortality rate,"[2]; Test no. 5, soil drench 390 mg ai/plant",38%
